Common to all, as to format: functional, cell-based
The subject of one assay is PC-3. The experiment in a line: Cytostatic activity against human prostate cancer PC3 cell line.
The subject of the next assay is MDA-MB-231. Put plainly: Cytostatic activity against human breast cancer MDA-MB-231 cell line.
For the next assay, the system named is T-24. The experiment in a line: Cytostatic activity against human bladder cancer T24 cell line.

Consider `CCC(C)[C@H](NP(=O)(OC[C@H]1O[C@@H](n2cc(/C=C/Br)c(=O)[nH]c2=O)C[C@@H]1O)Oc1cccc2ccccc12)C(=O)OC` (stereo partly specified), for which the half-maximal effective concentration (EC50) (usually the concentration giving half of the maximal effect) was determined as 6.9 µM in the assay on PC-3 and 1.5 µM in the assay with MDA-MB-231.

Regarding `CCC(C)[C@H](NP(=O)(OC[C@H]1O[C@@H](n2cc(/C=C/Br)c(=O)[nH]c2=O)C[C@@H]1O)Oc1cccc2ccccc12)C(=O)OCc1ccccc1` (stereo partly specified), the 50% effective concentration (EC50) in the assay with PC-3 was 1.4 µM; in the assay with MDA-MB-231, 130 µM.

Regarding `C[C@@H](NP(=O)(OCC1OC(n2cc(/C=C/Br)c(=O)[nH]c2=O)CC1O)Oc1cccc2ccccc12)C(=O)OCc1ccccc1` (stereo partly specified), the EC50 with T-24 worked out at 2.8 µM; in the assay on PC-3, 6.1 µM; with MDA-MB-231, 6.3 µM.

Consider `O=C(OCc1ccccc1)[C@H](Cc1ccccc1)NP(=O)(OCC1OC(n2cc(/C=C/Br)c(=O)[nH]c2=O)CC1O)Oc1cccc2ccccc12` (stereo partly specified), for which the results for the half-maximal effective concentration (EC50) with T-24, in the assay on PC-3 and with MDA-MB-231 were 269 µM, 5.8 µM and 1.96 µM, respectively.

Consider `COC(=O)[C@H](Cc1ccccc1)NP(=O)(OCC1OC(n2cc(/C=C/Br)c(=O)[nH]c2=O)CC1O)Oc1cccc2ccccc12` (stereo partly specified), for which the EC50 was determined as 5.3 µM in the assay on T-24, 10.2 µM with PC-3 and 8.5 µM in the assay on MDA-MB-231.

As to `COC(=O)[C@H](C(C)C)P(=O)(OCC1OC(n2cc(/C=C/Br)c(=O)[nH]c2=O)CC1O)Oc1cccc2ccccc12` (stereo partly specified), the EC50 in the assay with T-24 stood at 43.5 µM; in the assay with PC-3, 15.8 µM; in the assay with MDA-MB-231, 14.8 µM.

Regarding `C[C@H](NP(=O)(O)Oc1cccc2ccccc12)C(=O)OCc1ccccc1`, the figures for the 50% effective concentration (EC50) with PC-3 and with MDA-MB-231 were 1.7 µM and 15.2 µM, respectively.

For `CC(C)(NP(=O)(OC[C@H]1O[C@@H](n2cc(/C=C/Br)c(=O)[nH]c2=O)C[C@@H]1O)Oc1cccc2ccccc12)C(=O)OCc1ccccc1` (stereo partly specified), the 50% effective concentration (EC50) with PC-3 was 1.5 µM; with MDA-MB-231, 2.7 µM.

Consider `COC(=O)C(C)(C)NP(=O)(OC[C@H]1O[C@@H](n2cc(/C=C/Br)c(=O)[nH]c2=O)C[C@@H]1O)Oc1cccc2ccccc12` (stereo partly specified), for which the results for the EC50 with PC-3 and in the assay on MDA-MB-231 were 65.9 µM and 0.32 µM, respectively.

As to `COC(=O)[C@@H](NP(=O)(OCC1OC(n2cc(/C=C/Br)c(=O)[nH]c2=O)CC1O)Oc1cccc2ccccc12)c1ccccc1` (stereo partly specified), the EC50 in the assay with PC-3 was 1.7 µM; in the assay on MDA-MB-231 it was 105 µM.

In the case of `CC(C)[C@H](NP(=O)(OCC1OC(n2cc(/C=C/Br)c(=O)[nH]c2=O)CC1O)Oc1cccc2ccccc12)C(=O)OCc1ccccc1` (stereo partly specified), the values for the EC50 in the assay with T-24, in the assay with PC-3 and with MDA-MB-231 were 12.7 µM, 8.3 µM and 5.9 µM, respectively.

In the case of `COC(=O)[C@H](CCSC)NP(=O)(OCC1OC(n2cc(/C=C/Br)c(=O)[nH]c2=O)CC1O)Oc1cccc2ccccc12` (stereo partly specified), the EC50 worked out at 19.6 µM in the assay with T-24, 44.6 µM with PC-3 and 28.1 µM in the assay with MDA-MB-231.

Consider `COC(=O)[C@@H]1CCCN1P(=O)(OCC1OC(n2cc(/C=C/Br)c(=O)[nH]c2=O)CC1O)Oc1cccc2ccccc12` (stereo partly specified), for which the concentration giving a half-maximal response (EC50) in the assay with T-24 amounted to 0.4 µM; in the assay with PC-3, 10.5 µM; with MDA-MB-231, 6.5 µM.

For `C[C@H](NP(=O)(OCC1OC(n2cc(/C=C/Br)c(=O)[nH]c2=O)CC1O)Oc1cccc2ccccc12)C(=O)OC(C)(C)C` (stereo partly specified), the EC50 amounted to 4 µM in the assay on T-24, 11 µM in the assay with PC-3 and 4.8 µM in the assay on MDA-MB-231.

Values taken from ChEMBL document CHEMBL1148610, “Novel potential anticancer naphthyl phosphoramidates of BVdU: separation of diastereoisomers and assignment of the absolute configuration of the phosphorus center” (J Med Chem, 2006).
